Reference: article PMC6984391, “Anion carriers as potential treatments for cystic fibrosis: transport in cystic fibrosis cells, and additivity to channel-targeting drugs” (Chemical Science, 2019)
“Also recorded” adds a separate entry of the source.

How the values were obtained:
YFP-CFBE cells [1] = test: YFP fluorescence plate reader assay of anion transport in YFP-CFBE cells; assay type: cell-based; conditions: for anion transport in YFP-CFBE cells (in words) / concentration–response relationship in YFP-CFBE compared with YFP-FRT cells: 1–50 μM; for anionophore concentration matching the effect of UTP (1 mM): anion transport equivalent to CaCC activation, YFP-CFBE cells; for effect of CaCC activation on anionophore-mediated anion transport: anionophore 50 μM with UTP 1 mM; for effect of CaCCinh-A01 on transport by anionophore: anionophore 50 μM, CaCCinh-A01 10 μM
From the text: To begin to test anionophores in CF airway epithelial cells, we utilised the CF bronchial epithelial cell line CFBE41o^– engineered to express YFP-H148Q/I152L (YFP-CFBE cells).[34],[35] One advantage of using YFP-CFBE cells is that they endogenously express the Ca^2+-activated Cl^– channel (CaCC), unlike YFP-FRT cells.[33] Thus, using YFP-CFBE cells, we directly compared anion transport by anionophores with that of the CaCC, an alternative pathway to restore anion transport in CF.[13]
FRT cells stably expressing the halide sensor YFP-H148Q/I152L6 were generous gifts of AS Verkman (University of California, San Francisco), while CFBE41o- cells7 stably expressing YFP (YFP-CFBE cells) were a generous gift of LJV Galietta (Telethon Institute for Genetics and Medicine). YFP-FRT cells were cultured as described previously for FRT cells8 except that media contained 10% fetal bovine serum, 2 mM L-glutamine and the selection agent G418 (YFP-FRT cells, 0.5 mg ml-1; WT-CFTR-YFP-FRT cells, 0.75 mg ml-1) or zeocin (F508del-CFTR-YFP-FRT cells, 0.5 mg ml-1). YFP-CFBE cells were cultured in minimal essential medium (MEM) supplemented with 10% fetal bovine serum, 2 mM L-glutamine, 100 U ml-1 penicillin and […] streptomycin. All cells were incubated at 37 °C in a humidified atmosphere with 5% CO2.
For fluorescence microplate reader studies, cells were seeded in 96-well plates and grown in culture media at 37 °C in a humidified atmosphere with 5% CO2 for 3 – 4 days until […]
90% confluent. […]
Fluorescence plate reader assay […]
quenching of YFP fluorescence at 37 °C using a microplate reader following the method of Galietta et al..9 The microplate reader (model: FLUORstar Omega; BMG LABTECH Ltd., Aylesbury, UK) was equipped with a syringe pump and excitation (500 ± 10 nm) and emission (535 ± 15 nm) filters (Chroma Technology GmbH, Olching, Germany). After washing cells twice with PBS (composition (mM): 137 NaCl, 2.7 KCl, 8.1 Na2HPO4, 1.5 KH2PO4, 1 CaCl2 and 0.5 MgCl2, pH 7.40), cells were incubated with test anionophores (1 – 50 µM) or the vehicle (DMSO [0.1 – 0.5% v v-1]) in 40 µl of PBS for 10 – 120 minutes according to the experimental design. Other compounds, including forskolin, ivacaftor and channel inhibitors were added to […]
the PBS bathing cells 10 minutes prior to PBS iodide addition, whereas UTP was added to cells with the PBS iodide solution. Fluorescence was measured for 14 seconds; 2 seconds before and 12 seconds after injection of 110 µl PBS iodide solution (137 mM Cl- replaced by I-) into each well (to obtain a final concentration of I- of 100 mM).
We expressed cell fluorescence values (F) relative to the fluorescence value immediately before I- injection (F0), excluding the initial decrease, which likely represents the quenching of extracellular YFP released from cells and signal reduction accompanying the increase in solution volume bathing cells. To quantify anion transport by test anionophores, we determined the initial slope of the fluorescence decay following I - addition by fitting first order exponential functions to the last 12 seconds of each fluorescence recording. In each experim ent, n values represent the mean of two replicates and all treatments were tested at least three times using different microplates. […]
FRT cells was selected and the cells were perfused with (i) PBS for 5 minutes then (ii) PBS containing I- (10 mM) (made by preparing PBS with 127 mM NaCl to maintain osmolarity) for 5 minutes and finally (iii) PBS for 30 minutes to remove thoroughly I- from the perfusion chamber. YFP-FRT cells were repeatedly treated with I- (10 mM) and then washed with PBS […]
During all interventions, the rate of solution perfusion was 8 – 10 ml min-1; temperature was 37 °C and except for the first 15 minutes of PBS washing, no data were collected between cycles of I- perfusion and PBS […]
For cell fluorescence measurements, we used the Volocity (Improvision) data acquisition and analysis system and a cooled CCD camera (Hamamatsu ORCA ER firewall) […]

YFP-CFBE cells [2] = test: XTT cell viability assay in YFP-CFBE cells; assay type: cell-based; conditions: for cytotoxicity in YFP-CFBE cells (XTT): 1–50 μM, 18 h at 37 °C; for IC50: XTT, 18 h treatment, fit of first order regression (Fig. S23), read-out: half-maximal inhibitory concentration (IC50), cell viability
Description: For cytotoxicity studies, we used YFP-CFBE and YFP-FRT cells. YFP-CFBE cells were seeded in 96-well plates at a density of 5 x 10^4 cells/well and cultured at 37 °C in a humidified atmosphere of 5% CO2. Thirty hours after seeding the cells, different concentrations of anionophores were added to the culture media and the cells were incubated with anionophores for 18 h. To assay cell viability, we used the XTT Cell Proliferation Assay Kit (ATCC) according to the manufacturer’s instructions. The specific absorbance of test samples was measured using a Microplate Spectrophotometer (SpectraMax 190, Molecular Devices, Sunnyvale, CA, USA). In each experiment, multiple replicates (12 – 25 wells from 3 – 5 plates) were tested for each concentration of anionophore. […]
To evaluate the cytotoxicity of anionophores 11, 12, 15 and 19, we treated YFP-CFBE cells with the anionophores (1 – 50 µM) in DMSO for 18 h at 37 °C before assessing cell viability using sodium 2,3, -bis(2-methoxy-4-nitro-5-sulfophenyl)-5-[(phenylamino)-carbonyl]-2H-tetrazolium) (XTT). Figure S23 summarises the resu lts. Although compounds […]
(1 picture or pasted object on this page, not shown here)

[3] = parameters: method as in ref [20], [23] (Reference column); conditions: extraction of Et4N^+Cl^– from water into chloroform at 303 K; ref [20], [23]; cited from earlier work
[4] = parameters: method as in PMID 22461434, PMID 21846096, PMID 29786913; conditions: mol% carrier to lipid for 50% Cl^– efflux in 270 s; 490 mM NaCl inside, 490 mM NaNO3 outside; ref [22], [16 and 25]; cited from earlier work

SMILES | effect of increasing incubation period from 10 to 120 minutes on anion transport (YFP-CFBE cells [1]; 10 μM) | effect of increasing incubation period from 10 to 120 minutes on anion transport (YFP-CFBE cells [1]; 50 μM) | anion transport in YFP-CFBE cells (in words) (YFP-CFBE cells [1]) | concentration–response relationship in YFP-CFBE compared with YFP-FRT cells (YFP-CFBE cells [1]) | anionophore concentration matching the effect of UTP (1 mM) (YFP-CFBE cells [1]) [µM] | effect of CaCC activation on anionophore-mediated anion transport (YFP-CFBE cells [1]) | effect of CaCCinh-A01 on transport by anionophore (YFP-CFBE cells [1]) | cytotoxicity in YFP-CFBE cells (XTT) (YFP-CFBE cells [2]) | IC50 (YFP-CFBE cells [2]) [µM] | K a to Cl^– in CHCl3 [3] | EC50, 270 s [4] [mol%]
CCOC(=O)[C@]12CC[C@@H](NC(=S)Nc3ccc([N+](=O)[O-])cc3)C[C@@H]1C[C@@H](NC(=S)Nc1ccc([N+](=O)[O-])cc1)CC2 [Compound 12] | increased noticeably | dramatic acceleration | mediated anion transport | identical | 1 | either without effect or weakly additive | not observed |  |  |  | 
CCOC(=O)[C@]12CC[C@@H](NC(=S)Nc3cc(C(F)(F)F)cc(C(F)(F)F)c3)C[C@@H]1C[C@@H](NC(=S)Nc1cc(C(F)(F)F)cc(C(F)(F)F)c1)CC2 [Compound 15] |  |  | mediated anion transport | less efficacious | 1 | either without effect or weakly additive | not observed | some cytotoxicity | > 50 | 4.7 × 10^8 M^–1 | 
FC(F)(F)c1ccc(NC(=S)NCCN(CCNC(=S)Nc2ccc(C(F)(F)F)cc2)CCNC(=S)Nc2ccc(C(F)(F)F)cc2)cc1 [Compound 18] |  |  |  |  |  |  |  |  |  |  | 0.077
FC(F)(F)c1cc(NC(=S)NCCN(CCNC(=S)Nc2cc(C(F)(F)F)cc(C(F)(F)F)c2)CCNC(=S)Nc2cc(C(F)(F)F)cc(C(F)(F)F)c2)cc(C(F)(F)F)c1 [Compound 19] | increased noticeably | increased noticeably | mediated anion transport | similar | 1 | strongly additive | direct inhibitory effect | some cytotoxicity; also recorded: strongest effect | 38 |  | 0.042
